Reference: publication PMC9096165 (Frontiers in Pharmacology, 2022)

Assays:
F11 cells = assay: F11 cell viability (CellTiter AQueous One); assay type: cell-based; conditions: differentiated F11 cells, 24 h, 5 to 200 nM
Protocol: (§1) For these experiments, cells at 18th passage were used.
[…] Cell viability was determined using the colorimetric method CellTiter AQueous One Solution Cell Proliferation Assay (Promega Corporation, United States), as previously reported ([Brandolini et al., 2017]). The quantity of formed formazan, as a function of viability, was measured at 492 nm using an ELISA plate reader, Infinite F200 (Tecan, Männedorf, Swiss). The results from five independent experiments were expressed as absorbance at 492 nm.

CXCL1 = CXCL1 mRNA expression in F11 cells (RT PCR); assay type: cell-based; conditions: CYP 100 nM alone
Text: as §1
(§2) Triplicate samples were run for each gene.

CXCR1 = CXCR1 mRNA expression in F11 cells (RT PCR); assay type: cell-based; conditions: CYP 100 nM alone
Text: as §1, §2

urinary bladder = assay type: in vivo; conditions: chronic CYP 75 mg kg^−1 i.p. three times every third day
Protocol: CYP was administered to the animals by the intraperitoneal (i.p.) route (5 ml kg^−1) at the dosage of 75 mg kg^−1 for three times every third day to elicit chronic bladder irritation, as previously described ([Vizzard et al., 1996]).
Animals pre-treated with the vehicle or a single high oral dose of DF2755A (20 mg kg^−1; 12 h before the first CYP administration) followed by repeated lower doses administration (7 mg kg^−1 twice daily for 7 days) during IC development were deeply anesthetized with isoflurane (4%) and then killed.
After killing, rat abdomen was opened through a midline incision, and bladder and proximal urethra were exposed. A catheter was inserted into the bladder through the urethra and a loose ligature was placed around the neck of the urinary bladder. Bladder was inflated with saline via the catheter to slightly distend the bladder and ligature was tightened to maintain proper distension. Bladder was then excised cutting above the insertion point of ureters, and therefore the bladder neck was not included into the bladder sample. Bladders were opened using scissors and, after gross macroscopic evaluation and weighing, each bladder was cut into two equal pieces (named B1 and B2) and weighted again individually. One piece (B1) was placed in Eppendorf, then snap-frozen in liquid nitrogen, and stored at −80°C until quantification using ELISA assay. The second piece (B2) was placed in 10% formalin and stored at room temperature. Then the same samples were placed in 70% ethanol, then processed in paraffin blocks, and then trimmed according to the longitudinal plane to ensure the correct analysis of all the bladder sample. Sections were stained with hematoxylin and eosin (HE), and slides were then digitalized using a Pathscan® Touch scanner in the bright field mode with a ×20 objective. For the microscopic observations of bladder inflammation, the following parameters were analyzed: bladder edema in scores (n = 10/group), bladder hemorrhage in scores (n = 10/group), urothelial loss in scores (n = 10/group), and total inflammatory score, which was calculated by adding all the individual lesion scores (n = 10/group).

TRPV4 = conditions: F11 cells, CYP 100 nM alone
Protocol: F11 hybridoma cell line (ECACC 08062601), chosen as a model of dorsal root ganglion (DRG) neurons ([Platika et al., 1985]; [Brandolini et al., 2017]) was cultivated in DMEM (Corning, United States) supplemented with 10% heat-inactivated FBS (Sigma-Aldrich St. Louis, CO, United States), 1% penicillin/streptomycin, and 1% glutamine (Sigma-Aldrich, United States) at 37°C, in a humidified 95% air and 5% CO2 atmosphere. For these experiments, cells at 18th passage were used. Cells were differentiated with the rat nerve growth factor (rNGF; Sigma-Aldrich, United States). rNGF was dissolved in DMEM with 1% penicillin/streptomycin and 1% glutamine (FBS free) at the final concentration of 50 ng ml^−1. Medium was replaced every 3 days until complete differentiation, which occurred after 7 days.
TRPV1 and TRPV4 mRNA expression and protein levels and CXCR1, CXCR2, and CXCL1 mRNA levels were evaluated in F11 cells exposed to CYP. […] The total RNA concentration was determined in RNAase-free water using Nanodrop, while the concentration was determined using the Qubit Fluorometer 3.0 (Thermo, United States). […] Relative expression levels were calculated for each sample after normalization against the reference gene, using the 2^−ΔΔCt method for comparing relative fold expression differences.

TRPV1 [1] = assay: TRPV1 protein level in F11 cells (Western blotting); assay type: cell-based; conditions: CYP 100 nM alone
Text: as §1, §2
Control and treated F11 cells were collected and lysed in an ice-cold RIPA buffer containing protease and phosphatase inhibitor cocktail (Sigma-Aldrich, United States). The extracted proteins were quantified using BCA assay (Thermo, United States). NuPAGE lithium dodecyl sulfate sample buffer (Cat#NP007, Thermo, United States) and NuPAGE sample reducing agent (Cat#NP0004, Thermo, United States) were added to the samples and then put in the Thermoblock (Eppendorf, United Kingdom) at 75°C for 10 min. Protein lysates (30 μg) were separated on NuPAGE bis–tris glycine gradient precast gel (Cat#NP0321PK2, Invitrogen, United States) and electroblotted on a PVDF membrane (Cat#IPVH00010, Millipore, United States) using a semi-dry system (Thermo, United States). Non-specific binding sites were blocked by blocking solution (Cat#000105, Invitrogen, United States) for 15 min at RT. […] The relative densities of the immunoreactive bands were determined and normalized with respect to actin, using Fiji software. […]

CXCR2 = CXCR2 mRNA expression in F11 cells (RT PCR); assay type: cell-based; conditions: CYP 100 nM alone
Text: as §1, §2

TRPV1 [2] = assay: TRPV1 mRNA expression in F11 cells (RT PCR); assay type: cell-based; conditions: CYP 100 nM alone
Text: as §1, §2

[3] = test system: acute CYP-induced IC model; parameters: method as in Dornelles et al., 2014; conditions: acute CYP-induced IC rat model with inflammatory bladder infiltrate; ref Dornelles et al., 2014; cited from earlier work

SMILES	neuronal cell viability (F11 cells)	CXCL1 mRNA expression versus control (CXCL1)	CXCR1 mRNA expression versus control (CXCR1)	bladder hemorrhage (urinary bladder)	inflammatory infiltrate and urothelial hyperplasia in urinary bladder (urinary bladder)	bladder edema, mean score (urinary bladder; score 0–4 (Table 1))	urothelial loss, mean score (urinary bladder; score 0–4 (Table 1))	TRPV4 mRNA expression versus control (TRPV4)	TRPV1 protein level versus control (TRPV1 [1])	CXCR2 mRNA expression versus control (CXCR2)	TRPV1 mRNA expression versus control (TRPV1 [2])	effect on nociceptive behavior [3]
O=P1(N(CCCl)CCCl)NCCCO1 (stereo not drawn) [CYP, Cyclophosphamide, reference compound]	did not modulate neuronal cell viability	significantly increased	significantly increased	no hemorrhage	no inflammatory infiltrate and no urothelial hyperplasia	0.4 ± 0.16	0.1 ± 0.10	did not change	increased	significantly increased	significantly increased	–
O=C(Nc1ccc([N+](=O)[O-])cc1O)Nc1ccccc1Br [SB225002]	–	–	–	–	–	–	–	–	–	–	–	antinociceptive effect
